Assay results reported in US20240091248A1, “METHODS OF TREATING ACUTE MYELOID LEUKEMIA AND MANAGING CYTOPENIA” (GENENTECH, INC., priority 2021, published 2024).

Legend:
[1] = tested on: patients with acute myeloid leukemia (AML); assay: measurable residual disease (MRD) response analysis of the phase 3 study; type: in vivo, human; details: p<0.001
Procedure: Methods: Enrolled patients were ≥18 years and unfit for intensive chemotherapy. Patients received Ven 400 mg orally; days 1-28 and Aza 75 mg/m^2; days 1-7/28-day cycle. Bone marrow aspirate samples for multiparametric flow cytometry assessments by integrated leukemia-associated immunophenotypes and different than normal procedures were collected for central analysis (Covance Central Laboratory Services) at baseline, end of cycle 1, and every 3 cycles thereafter. Assessments were performed independent of disease responses. MRD response was defined as <1 residual blast/1000 leukocytes (<10^−3). CRc, DoR, OS, and EFS were assessed. Disease assessments were per modified International Working Group response criteria for AML.

[2] = tested on: patients with acute myeloid leukemia (AML); assay: venetoclax exposure versus overall survival in CR/CRh patients with post-remission cytopenia; type: in vivo, human; details: switched to 21-day dosing or remained on 28-day dosing, Cox proportional-hazards models
Mcl-1 = Mcl-1 (Homo sapiens, UniProt Q07820); details: cited from earlier work
Mcl-1, sequence (Q07820 whole entry): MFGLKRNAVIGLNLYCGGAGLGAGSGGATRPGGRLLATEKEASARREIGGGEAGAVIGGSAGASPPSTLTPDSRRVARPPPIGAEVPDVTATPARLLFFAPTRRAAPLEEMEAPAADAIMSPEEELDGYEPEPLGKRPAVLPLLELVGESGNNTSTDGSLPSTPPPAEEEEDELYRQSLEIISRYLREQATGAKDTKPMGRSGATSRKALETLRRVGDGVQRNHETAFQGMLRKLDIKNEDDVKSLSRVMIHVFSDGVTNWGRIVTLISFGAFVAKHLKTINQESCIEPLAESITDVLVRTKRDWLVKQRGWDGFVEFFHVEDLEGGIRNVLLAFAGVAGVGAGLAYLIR

Row | SMILES | rate of composite complete remission (CRc) and MRD response (MRD<10^−3) [1] | relationship between venetoclax exposure (Cavg) and overall survival [2] | Ki (Mcl-1)
1 | Nc1ncn([C@@H]2O[C@H](CO)[C@@H](O)[C@H]2O)c(=O)n1 [Aza, 4-amino-1-β-D-ribofuranosyl-s-triazin-2(1H)-one] | 7.6% |  | 
2 | CC1(C)CCC(CN2CCN(c3ccc(C(=O)NS(=O)(=O)c4ccc(NCC5CCOCC5)c([N+](=O)[O-])c4)c(Oc4cnc5[nH]ccc5c4)c3)CC2)=C(c2ccc(Cl)cc2)C1 [venetoclax, 4-(4-{[2-(4-chlorophenyl)-4,4-dimethylcyclohex-1-en-1-yl]methyl}piperazin-1-yl)-N-({3-nitro-4-[(tetrahydro-2H-pyran-4-ylmethyl)amino]phenyl}sulfonyl)-2-(1H-pyrrolo[2,3-b]pyridin5-yloxy)benzamide] |  | no apparent relationship | > 444 nM
